This note sets out measurements from patent publication US9926319B2, “Pyridyl piperidines” (MERCK PATENT GMBH, priority 2014, dated 2018).

For one data set, the system named is Wnt pathway. The data set can be described thus: Cellular assay for Wnt pathway activity (luciferase reporter cell based assay). The note with it: 24 h, HEK293 luciferase reporter cell line (ER-DSH, TCF dependent promoter), induced with estrogen (1 μM), read-out: 7df3 IC50. In general terms: A reporter such as luciferase makes a cellular process visible.
A short description of data set [1]: CLint (intrinsic clearance) assay, microsomal incubation. It is filed as in vitro ADME, Human. The note with it: human, liver microsomes, pH 7.4, human liver microsomes 0.5 mg/mL protein, NADPH, 37° C., up to 30 min. The procedure: 2. CLint (Intrinsic Clearance) Assay
A Tecan Genesis workstation (RWS ASY 150/8) was used to perform the microsomal incubations. Analysis was carried out using a Waters ACQUITY UPLC system coupled to an ABSciex API3000 mass spectrometer. Data analysis was performed using Assay Explorer (Symyx).
0.1 M potassium phosphate buffer pH 7.4 containing 1 mM MgCl2
15 mM NADPH in phosphate buffer
5.0 mg protein/mL liver microsomes in phosphate buffer
Each experiment consists of 12 test and 2 reference compounds. The reference compounds are incubated as a cocktail.
Dilution of test compounds was done in 2 steps from a 10 mM DMSO stock solution. First 4 μL stock solution was added to 196 μL of 20% DMSO in potassium phosphate buffer pH 7.4. In a second step 10 μL of the first dilution were added to […] potassium phosphate buffer and 100 μL internal standard solution to a final concentration of 0.8 μM. 100 μL of the final compound dilution were aliquoted into a 96 deep well plate. 12.5 μL liver microsomes were added to each well (0.5 mg/mL final protein concentration) and the samples preincubated for 5 min at 37° C. and 800 rpm agitation.
After the preincubation, 250 μL cold acetonitrile were added to the 0 min samples to prevent a reaction. Following this, 12.5 μL NADPH solution were added to all wells to start the incubation, with the exception of the 0 min and 30 min controls without cofactor, where the NADPH was substituted for phosphate buffer.
The incubations were stopped after 5, 10, 20 and 30 min by adding 250 μL cold acetonitrile to the individual wells.
The quenched samples were then centrifuged at 4000 g for 1 h at 4° C. 100 μL of the supernatant were transferred into 96 well plates for analysis.
The metabolic stability of each compound was determined by measurement of the change in LC-MS/MS peak area over time. Assay Explorer software was used to automatically calculate the slope k of the decline. The intrinsic clearance (CLint) of each compound was then calculated according to the formula: CLint(μL/min/mg protein)=k1000/protein concentration.
CLint is shown for each compound in Table 3 below.
On the technique in general: Microsomes from liver hold many membrane-bound enzymes, among them those of drug oxidation.

Turning to `CN1c2ccc(-c3cncc(Cl)c3N3CCC(F)(C(N)=O)CC3)cc2CS1(=O)=O` [Example 31, 5′-Chloro-4-fluoro-3′-(1-methyl-2,2-dioxo-2,3-dihydro-1H-2l6-benzo[c]isothiazol-5-yl)-3,4,5,6-tetrahydro-2H-[1,4′]bipyridinyl-4-carboxylic acid amide], the IC50 in the data set with Wnt pathway was 2.8 nM. Besides, the microsomal CLint at 0.8 μM in data set [1] worked out at 51 µL/min/mg.
For the compound `O=C1NCCC12CCN(c1c(Cl)cncc1-c1ccc3c(c1)CS(=O)(=O)C3)CC2` [Example 32, 8-[3-Chloro-5-(2,2-dioxo-2,3-dihydro-1H-2l6-benzo[c]thiophen-5-yl)-pyridin-4-yl]-2,8-diaza-spiro[4.5]decan-1-one], the IC50 with Wnt pathway is 4.7 nM. In data set [1], the microsomal CLint at 0.8 μM was 70 µL/min/mg.
For `CN1c2ccc(-c3cncc(Cl)c3N3CCC(C#N)(CCO)CC3)cc2CS1(=O)=O` [Example 33, 5′-Chloro-4-(2-hydroxy-ethyl)-3′-(1-methyl-2,2-dioxo-2,3-dihydro-1H-2l6-benzo[c]isothiazol-5-yl)-3,4,5,6-tetrahydro-2H-[1,4′]bipyridinyl-4-carbonitrile] the same measures were 0.6 nM and 88 µL/min/mg.
For `CC(C)n1cc(-c2ccc(-c3cncc(Cl)c3N3CCC4(CC3)CNC(=O)O4)cc2)cn1` [Example 36, 8-{3-Chloro-5-[4-(1-isopropyl-1H-pyrazol-4-yl)-phenyl]-pyridin-4-yl}-1-oxa-3,8-diaza-spiro[4.5]decan-2-one] the same measures were 22 nM and 40 µL/min/mg.
For `CC(C)n1cc(-c2ccc(-c3cncc(C(F)(F)F)c3N3CCC4(CC3)CNC(=O)O4)cc2)cn1` [Example 38, 8-{3-[4-(1-Isopropyl-1H-pyrazol-4-yl)-phenyl]-5-trifluoromethyl-pyridin-4-yl}-1-oxa-3,8-diaza-spiro[4.5]decan-2-one] the same measures were 33 nM and 16 µL/min/mg.
As to `CS(=O)(=O)CCn1cc(-c2ccc(-c3cncc(Cl)c3N3CCC4(CC3)CNC(=O)O4)cc2)cn1` [Example 39, 8-(3-Chloro-5-{4-[1-(2-methanesulfonyl-ethyl)-1H-pyrazol-4-yl]-phenyl}-pyridin-4-yl)-1-oxa-3,8-diaza-spiro[4.5]decan-2-one], the IC50 in the data set on Wnt pathway is 14 nM. In addition, the microsomal CLint at 0.8 μM in data set [1] was 12 µL/min/mg.
For `N#CCCn1cc(-c2ccc(-c3cncc(Cl)c3N3CCC4(CC3)CNC(=O)O4)cc2)cn1` [Example 40, 3-(4-{4-[5-Chloro-4-(2-oxo-1-oxa-3,8-diaza-spiro[4.5]dec-8-yl)-pyridin-3-yl]-phenyl}-pyrazol-1-yl)-propionitrile] the same measures were 3.9 nM and 61 µL/min/mg.
For `CN1c2ccc(-c3cncc(Cl)c3N3CCC4(CC3)C[C@@H](C(F)(F)F)NC4=O)cc2CS1(=O)=O` [Example 42, (S)-8-[3-Chloro-5-(1-methyl-2,2-dioxo-2,3-dihydro-1H-2l6-benzo[c]isothiazol-5-yl)-pyridin-4-yl]-3-trifluoromethyl-2,8-diaza-spiro[4.5]decan-1-one] the same measures were 2.4 nM and 57 µL/min/mg.
In the same order, the values of `CC(C)(O)Cn1cc(-c2ccc(-c3cncc(Cl)c3N3CCC4(CC3)CNC(=O)O4)cc2)cn1` [Example 43, 8-(3-Chloro-5-{4-[1-(2-hydroxy-2-methyl-propyl)-1H-pyrazol-4-yl]-phenyl}-pyridin-4-yl)-1-oxa-3,8-diaza-spiro[4.5]decan-2-one] are 50 nM and 11 µL/min/mg.
Regarding `CN1c2ccc(-c3cncc(Cl)c3N3CCC(N)(C(N)=O)CC3)cc2CS1(=O)=O` [Example 44, 4-Amino-5′-chloro-3′-(1-methyl-2,2-dioxo-2,3-dihydro-1H-2l6-benzo[c]isothiazol-5-yl)-3,4,5,6-tetrahydro-2H-[1,4′]bipyridinyl-4-carboxylic acid amide], the IC50 with Wnt pathway worked out at 5.1 nM. Moreover, the microsomal CLint at 0.8 μM in data set [1] is < 10 µL/min/mg.
With `O=C1NCC2(CCN(c3c(Cl)cncc3-c3ccc4c(c3)CS(=O)(=O)C4)CC2)O1` [Example 48, 8-[3-Chloro-5-(2,2-dioxo-2,3-dihydro-1H-2l6-benzo[c]thiophen-5-yl)-pyridin-4-yl]-1-oxa-3,8-diaza-spiro[4.5]decan-2-one], the IC50 in the data set with Wnt pathway stood at 42 nM. Moreover, the microsomal CLint at 0.8 μM in data set [1] was 23 µL/min/mg.
On to `O=C1NCC2(CCN(c3c(Cl)cncc3-c3ccc4cnccc4c3)CC2)O1` [Example 50, 8-(3-Chloro-5-isoquinolin-6-yl-pyridin-4-yl)-1-oxa-3,8-diaza-spiro[4.5]decan-2-one], for which, in the data set on Wnt pathway, the IC50 was determined as 23 nM. Further, the intrinsic metabolic clearance (microsomal CLint) at 0.8 μM in data set [1] turned out to be 28 µL/min/mg.
In the same order, the values of `CCC1=NNC(=O)C12CCN(c1c(Cl)cncc1-c1ccc3c(c1)CS(=O)(=O)N3C)CC2` [Example 52, 8-[3-Chloro-5-(1-methyl-2,2-dioxo-2,3-dihydro-1H-2l6-benzo[c]isothiazol-5-yl)-pyridin-4-yl]-4-ethyl-2,3,8-triaza-spiro[4.5]dec-3-en-1-one] are 0.02 nM and 70 µL/min/mg.
In the same order, the values of `CN1c2ccc(-c3cncc(Cl)c3N3CCC4(CC3)C[C@H](C(F)(F)F)NC4=O)cc2CS1(=O)=O` [Example 53, (R)-8-[3-Chloro-5-(1-methyl-2,2-dioxo-2,3-dihydro-1H-2l6-benzo[c]isothiazol-5-yl)-pyridin-4-yl]-3-trifluoromethyl-2,8-diaza-spiro[4.5]decan-1-one] are 15 nM and 42 µL/min/mg.
In the same order, the values of `CCC1=NNC(=O)C12CCN(c1c(Cl)cncc1-c1ccc(-c3cnn(C)c3)cc1)CC2` [Example 54, 8-{3-Chloro-5-[4-(1-methyl-1H-pyrazol-4-yl)-phenyl]-pyridin-4-yl}-4-ethyl-2,3,8-triaza-spiro[4.5]dec-3-en-1-one] are 0.92 nM and 82 µL/min/mg.
In the case of `O=C1NCC2(CCN(c3c(Cl)cncc3-c3ccc(-c4cnn(C5COC5)c4)cc3)CC2)O1` [Example 55, 8-{3-Chloro-5-[4-(1-oxetan-3-yl-1H-pyrazol-4-yl)-phenyl]-pyridin-4-yl}-1-oxa-3,8-diaza-spiro[4.5]decan-2-one], in the data set with Wnt pathway, the IC50 was 20 nM. In addition, the microsomal CLint at 0.8 μM in data set [1] was determined as 23 µL/min/mg.
In the same order, the values of `Cn1cc(-c2ccc(-c3cncc(Cl)c3N3CCC4(CC3)C(=O)NN=C4C(F)(F)F)cc2)cn1` [Example 59, 8-{3-Chloro-5-[4-(1-methyl-1H-pyrazol-4-yl)-phenyl]-pyridin-4-yl}-4-trifluoromethyl-2,3,8-triaza-spiro[4.5]dec-3-en-1-one] are 17 nM and 43 µL/min/mg.
In the same order, the values of `O=C1NCC2(CCN(c3c(Cl)cncc3-c3ccc(-c4cnn(C5CC5)c4)cc3)CC2)O1` [Example 60, 8-{3-Chloro-5-[4-(1-cyclopropyl-1H-pyrazol-4-yl)-phenyl]-pyridin-4-yl}-1-oxa-3,8-diaza-spiro[4.5]decan-2-one] are 6.1 nM and 23 µL/min/mg.
In the same order, the values of `Cn1ncc2cc(-c3cncc(Cl)c3N3CCC4(CC3)C(=O)NN=C4C(F)(F)F)ccc21` [Example 61, 8-[3-Chloro-5-(1-methyl-1H-indazol-5-yl)-pyridin-4-yl]-4-trifluoromethyl-2,3,8-triaza-spiro[4.5]dec-3-en-1-one] are 17 nM and 38 µL/min/mg.
Turning to `O=C1NCC2(CCN(c3c(Cl)cncc3-c3ccc(-c4cnn([C@H]5CCC[C@@H]5O)c4)cc3)CC2)O1` [Example 62, 8-(3-Chloro-5-{4-[1-((1S,2S)-2-hydroxy-cyclopentyl)-1H-pyrazol-4-yl]-phenyl}-pyridin-4-yl)-1-oxa-3,8-diaza-spiro[4.5]decan-2-one], the IC50 with Wnt pathway is 34 nM. Moreover, the microsomal CLint at 0.8 μM in data set [1] was determined as 37 µL/min/mg.
In the same order, the values of `O=C1NCC2(CCN(c3c(Cl)cncc3-c3ccc(-c4cnn([C@@H]5CCC[C@H]5O)c4)cc3)CC2)O1` [Example 63, 8-(3-Chloro-5-{4-[1-((1R,2R)-2-hydroxy-cyclopentyl)-1H-pyrazol-4-yl]-phenyl}-pyridin-4-yl)-1-oxa-3,8-diaza-spiro[4.5]decan-2-one] are 30 nM and 29 µL/min/mg.
Regarding `O=C1Cc2ccc(-c3cncc(Cl)c3N3CCC4(CCNC4=O)CC3)cc2N1` [Example 64, 8-[3-Chloro-5-(2-oxo-2,3-dihydro-1H-indol-6-yl)-pyridin-4-yl]-2,8-diaza-spiro[4.5]decan-1-one], the IC50 with Wnt pathway worked out at 19 nM. The microsomal CLint at 0.8 μM in data set [1] was 49 µL/min/mg.
With `CN1C(=O)Cc2cc(-c3cncc(Cl)c3N3CCC4(CC3)CC(=O)NC4=O)ccc21` [Example 65, 8-[3-Chloro-5-(1-methyl-2-oxo-2,3-dihydro-1H-indol-5-yl)-pyridin-4-yl]-2,8-diaza-spiro[4.5]decane-1,3-dione], in the data set with Wnt pathway, the concentration for half-maximal inhibition (IC50) worked out at 21 nM. Further, the microsomal CLint at 0.8 μM in data set [1] was < 10 µL/min/mg.

What is called IC50 is the concentration that gives 50% inhibition. What is called microsomal CLint is the rate of metabolic loss divided by the concentration.
